Experimental data: PubChem BioAssay AID1963831 (Molecular Pharmacology Branch, DTP, NCI, 2024)

Test system: 889142-216-R-J1-PDC complex spheroid viability
Test: Anticancer human tumor 889142-216-R-J1-PDC patient-derived bladder carcinoma cell line growth inhibition [POLQ]
Conditions: for IC50: curve of first compound; for viability, T/C: stronger effect = lower value
In short: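 Three-cell-type spheroids modelling solid tumor plus stroma served as the readout system; POL inhibitors were tested individually and in combination, concentration ranges set by clinical Cmax where known.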

[1] = second compound 0.0316 µM, first compound 0.0316 µM
[2] = second compound 0.0316 µM, first compound 0.1 µM
[3] = second compound 0.0316 µM, first compound 0.316 µM
[4] = second compound 0.0316 µM, first compound 1 µM
[5] = second compound 0.0316 µM, first compound 3.16 µM
[6] = second compound 0.0316 µM, first compound 10 µM
[7] = second compound 0.1 µM, first compound 0.0316 µM
[8] = second compound 0.1 µM, first compound 0.1 µM
[9] = second compound 0.1 µM, first compound 0.316 µM
[10] = second compound 0.1 µM, first compound 1 µM
[11] = second compound 0.1 µM, first compound 3.16 µM
[12] = second compound 0.1 µM, first compound 10 µM
[13] = second compound 0.316 µM, first compound 0.0316 µM
[14] = second compound 0.316 µM, first compound 0.1 µM
[15] = second compound 0.316 µM, first compound 0.316 µM
[16] = second compound 0.316 µM, first compound 1 µM
[17] = second compound 0.316 µM, first compound 3.16 µM
[18] = second compound 0.316 µM, first compound 10 µM
[19] = second compound 1 µM, first compound 0.0316 µM
[20] = second compound 1 µM, first compound 0.1 µM
[21] = second compound 1 µM, first compound 0.316 µM
[22] = second compound 1 µM, first compound 1 µM
[23] = second compound 1 µM, first compound 3.16 µM
[24] = second compound 1 µM, first compound 10 µM
[25] = second compound 3.16 µM, first compound 0.0316 µM
[26] = second compound 3.16 µM, first compound 0.1 µM
[27] = second compound 3.16 µM, first compound 0.316 µM
[28] = second compound 3.16 µM, first compound 1 µM
[29] = second compound 3.16 µM, first compound 3.16 µM
[30] = second compound 3.16 µM, first compound 10 µM
[31] = second compound 10 µM, first compound 0.0316 µM
[32] = second compound 10 µM, first compound 0.1 µM
[33] = second compound 10 µM, first compound 0.316 µM
[34] = second compound 10 µM, first compound 1 µM
[35] = second compound 10 µM, first compound 3.16 µM
[36] = second compound 10 µM, first compound 10 µM
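Also: spheroids exposed to compounds for seven days.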
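For viability, T/C in this document: 100% = DMSO vehicle control viability.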

Compound `CC1COCCN1c1cc(C2(O)CC3CCC(C2)O3)c2cnn(-c3ccn[nH]3)c2n1` (stereo not drawn) + Nc1ccc(C#CCN(C(=O)Cc2ncc(C(F)(F)F)cc2C(F)(F)F)c2ccc(F)cc2)nn1 has an IC50 (second compound 0.0316 µM) of 0.101 µM, an IC50 (second compound 0.1 µM) of 0.251 µM and an IC50 (second compound 0.316 µM) of 0.209 µM. For the same compound, the IC50 (second compound 1 µM) was 0.0997 µM, the IC50 (second compound 3.16 µM) was 0.121 µM and the IC50 (second compound 10 µM) was 0.108 µM. For the same compound, the viability, T/C [1] was 63.7%, the viability, T/C [2] was 47.1% and the viability, T/C [3] was 39.1%. The viability, T/C [4] was 35.1%, the viability, T/C [5] was 30.5% and the viability, T/C [6] was 20.3%. For the same compound, the viability, T/C [7] was 67.2%, the viability, T/C [8] was 56.4% and the viability, T/C [9] was 49.4%. It also gave a viability, T/C [10] of 39.4%, a viability, T/C [11] of 31.6% and a viability, T/C [12] of 26.1%. The viability, T/C [13] was 71.9%, the viability, T/C [14] was 62% and the viability, T/C [15] was 40.9%. It also gave a viability, T/C [16] of 35%, a viability, T/C [17] of 27% and a viability, T/C [18] of 20%. It also gave a viability, T/C [19] of 64.5%, a viability, T/C [20] of 47.3% and a viability, T/C [21] of 37.4%. For the same compound, the viability, T/C [22] was 35.4%, the viability, T/C [23] was 29.6% and the viability, T/C [24] was 19.4%. For the same compound, the viability, T/C [25] was 57.8%, the viability, T/C [26] was 49.3% and the viability, T/C [27] was 44.8%. The viability, T/C [28] was 36%, the viability, T/C [29] was 31.2% and the viability, T/C [30] was 16.6%. For the same compound, the viability, T/C [31] was 67%, the viability, T/C [32] was 44.3% and the viability, T/C [33] was 42.1%. For the same compound, the viability, T/C [34] was 31.2%, the viability, T/C [35] was 26.8% and the viability, T/C [36] was 16.2%.

In the case of `O=C(c1cc(Cc2n[nH]c(=O)c3ccccc23)ccc1F)N1CCN(C(=O)C2CC2)CC1` + Nc1ccc(C#CCN(C(=O)Cc2ncc(C(F)(F)F)cc2C(F)(F)F)c2ccc(F)cc2)nn1, the IC50 (second compound 0.0316 µM) is reported as over 10 µM, the IC50 (second compound 0.1 µM) is reported as over 10 µM and the IC50 (second compound 0.316 µM) is reported as over 10 µM. It also gave an IC50 (second compound 1 µM) of over 10 µM, an IC50 (second compound 3.16 µM) of over 10 µM and an IC50 (second compound 10 µM) of over 10 µM. The viability, T/C [1] was 94%, the viability, T/C [2] was 93% and the viability, T/C [3] was 66.3%. The viability, T/C [4] was 118%, the viability, T/C [5] was 80.1% and the viability, T/C [6] was 73.5%. The viability, T/C [7] was 95.3%, the viability, T/C [8] was 112% and the viability, T/C [9] was 83.7%. For the same compound, the viability, T/C [10] was 97.5%, the viability, T/C [11] was 79.5% and the viability, T/C [12] was 66.6%. For the same compound, the viability, T/C [13] was 110%, the viability, T/C [14] was 115% and the viability, T/C [15] was 85.2%. The viability, T/C [16] was 104%, the viability, T/C [17] was 97.5% and the viability, T/C [18] was 59.7%. It also gave a viability, T/C [19] of 152%, a viability, T/C [20] of 113% and a viability, T/C [21] of 94.8%. It also gave a viability, T/C [22] of 102%, a viability, T/C [23] of 85.2% and a viability, T/C [24] of 67.6%. It also gave a viability, T/C [25] of 104%, a viability, T/C [26] of 92.4% and a viability, T/C [27] of 90.1%. The viability, T/C [28] was 98.2%, the viability, T/C [29] was 95.1% and the viability, T/C [30] was 62.8%. The viability, T/C [31] was 111%, the viability, T/C [32] was 110% and the viability, T/C [33] was 97.5%. It also gave a viability, T/C [34] of 90.9%, a viability, T/C [35] of 76.3% and a viability, T/C [36] of 86.2%.

`COc1cc(C2c3cc4c(cc3C(OC3OC5COC(C)OC5C(O)C3O)C3COC(=O)C23)OCO4)cc(OC)c1O` (stereo not drawn) + COC1C(OC(N)=O)C(O)C(Oc2ccc3c(O)c(NC(=O)c4ccc(O)c(CC=C(C)C)c4)c(=O)oc3c2C)OC1(C)C was tested, and the IC50 (second compound 0.0316 µM) was over 10 µM, the IC50 (second compound 0.1 µM) was over 10 µM and the IC50 (second compound 0.316 µM) was over 10 µM. For the same compound, the IC50 (second compound 1 µM) was 10 µM, the IC50 (second compound 3.16 µM) was over 10 µM and the IC50 (second compound 10 µM) was over 10 µM. For the same compound, the viability, T/C [1] was 93.7%, the viability, T/C [2] was 81.6% and the viability, T/C [3] was 52%. It also gave a viability, T/C [4] of 57.3%, a viability, T/C [5] of 74% and a viability, T/C [6] of 52.9%. The viability, T/C [7] was 87.1%, the viability, T/C [8] was 87.2% and the viability, T/C [9] was 63%. The viability, T/C [10] was 56.3%, the viability, T/C [11] was 70.4% and the viability, T/C [12] was 50.4%. For the same compound, the viability, T/C [13] was 110%, the viability, T/C [14] was 88.8% and the viability, T/C [15] was 66.1%. It also gave a viability, T/C [16] of 56.2%, a viability, T/C [17] of 60.3% and a viability, T/C [18] of 52.9%. The viability, T/C [19] was 91.5%, the viability, T/C [20] was 99.9% and the viability, T/C [21] was 53.4%. For the same compound, the viability, T/C [22] was 61%, the viability, T/C [23] was 60.4% and the viability, T/C [24] was 56%. The viability, T/C [25] was 94.9%, the viability, T/C [26] was 96.9% and the viability, T/C [27] was 75.3%. The viability, T/C [28] was 51%, the viability, T/C [29] was 58.1% and the viability, T/C [30] was 52.9%. For the same compound, the viability, T/C [31] was 108%, the viability, T/C [32] was 90.2% and the viability, T/C [33] was 56.7%. It also gave a viability, T/C [34] of 48.9%, a viability, T/C [35] of 64.5% and a viability, T/C [36] of 55.3%.

In the case of `CC(C)n1c(=O)n(C)c2cnc3cc(F)c(-c4ccc(OCCCN5CCCCC5)nc4)cc3c21` + Nc1ccc(C#CCN(C(=O)Cc2ncc(C(F)(F)F)cc2C(F)(F)F)c2ccc(F)cc2)nn1, the IC50 (second compound 0.0316 µM) is reported as over 10 µM, the IC50 (second compound 0.1 µM) is reported as over 10 µM and the IC50 (second compound 0.316 µM) is reported as over 10 µM. The IC50 (second compound 1 µM) was over 10 µM, the IC50 (second compound 3.16 µM) was over 10 µM and the IC50 (second compound 10 µM) was over 10 µM. It also gave a viability, T/C [1] of 96.5%, a viability, T/C [2] of 113% and a viability, T/C [3] of 119%. The viability, T/C [4] was 79.2%, the viability, T/C [5] was 65.5% and the viability, T/C [6] was 95.2%. For the same compound, the viability, T/C [7] was 122%, the viability, T/C [8] was 89.3% and the viability, T/C [9] was 70.7%. For the same compound, the viability, T/C [10] was 84%, the viability, T/C [11] was 62% and the viability, T/C [12] was 76.1%. The viability, T/C [13] was 95.8%, the viability, T/C [14] was 85.1% and the viability, T/C [15] was 79.9%. It also gave a viability, T/C [16] of 80.7%, a viability, T/C [17] of 56.4% and a viability, T/C [18] of 95.8%. For the same compound, the viability, T/C [19] was 91.4%, the viability, T/C [20] was 80.3% and the viability, T/C [21] was 104%. For the same compound, the viability, T/C [22] was 88.7%, the viability, T/C [23] was 57.3% and the viability, T/C [24] was 97.8%. The viability, T/C [25] was 85.6%, the viability, T/C [26] was 72.8% and the viability, T/C [27] was 80.5%. The viability, T/C [28] was 88%, the viability, T/C [29] was 70.1% and the viability, T/C [30] was 113%. It also gave a viability, T/C [31] of 79.3%, a viability, T/C [32] of 97.8% and a viability, T/C [33] of 88.6%. The viability, T/C [34] was 79.7%, the viability, T/C [35] was 59.7% and the viability, T/C [36] was 97.2%.
